Data published in US10774084B2, “Adenine derivatives and their use as UV-photoprotective agents” (UNIVERZITA PALACKEHO V OLOMOUCI, priority 2015, dated 2020).

Tests used:
[1] = test system: Caenorhabditis elegans strain fem-1/HT17; experiment: Lifespan of Caenorhabditis elegans; type: in vivo; details: for average lifespan / median lifespan: 25° C.; for effect on lifespan of worms (in words): Log-Rank test, Bonferroni correction
Description: Caenorhabditis elegans is a model organism used for identification of compounds with possible beneficial effect on human aging and age-related diseases. The list of compounds that prolong the lifespan of C. elegans and are known to have beneficial effect on human health includes resveratrol, curcumin and many others. Some substances that prolong the lifespan of worms are also used in skin rejuvenating and anti-aging cosmetics, for example vitamin E, coenzyme Q10, green tea or pomegranade extracts and cytokinin kinetin. The Caenorhabditis elegans strain used in this experiment was fem-1/HT17. This strain has a heat-inducible mutation which causes all worms to develop into females when cultivated in 25° C. (13). That prevents further reproduction and contamination of the experiment with progeny. Compounds dissolved in DMSO (100 mM stock solutions) were added into fresh NGM (nematode growth medium) to the final concentration of 10 and 50 or 100 μM and pipetted onto a Petri dish. Medium with DMSO vehiculum alone and non-treated medium were used as negative control. After solidification of NGM, the plates were seeded with 100 μl of 20× concentrated overnight suspension of Escherichia coli strain OP50 in LB medium. Bacteria on plates were allowed to grow overnight in 37° C. Age synchronized young adults (obtained by hypochlorite treatment) were then pipetted onto plates. Plates were kept in 25° C. In regular time intervals (1-3 days), the plates were scanned on an Epson perfection V700 photo flatbed scanner. The number of surviving worms was established by image analysis based on comparison of several subsequent photographs and identification of moving objects. Pictures were analyzed in Fiji similarly as described here. Scripts from the original publication were slightly modified and the parameters adjusted to better suit our photo resolution and lighting. Three subsequent pictures of a plate were compared with each other. The average of the 3 resulting numbers was used to reduce the possibility of error. The overall results were then analyzed in programs OASIS and ED50v10. The statistical significance was evaluated by Log-Rank test and P-values were corrected by Bonferroni correction.

[2] = test system: Normal human dermal fibroblasts (NHDF); experiment: In vitro phototoxicity test (neutral red) on NHDF; type: cell-based
Method: Phototoxic potential of test compound was determined by modified in vitro test validated phototoxicity evaluation (Spielmann H, Balls M, Dupuis J, Pape W J, Pechovitch G, de Silva O, Holzhiitter H G, Clothier R, Desolle P, Gerberick F, Liebsch M, Lovell W W, Maurer T, Pfannenbecker U, Potthast J M, Csato M, Sladowski D, Steiling W, Brantom P. The International EU/COLIPA In Vitro Phototoxicity Validation Study: Results of Phase II (Blind Trial). Part 1: The 3T3 NRU Phototoxicity Test. Toxicol In Vitro. 1998; 12:305-27). Normal human dermal fibroblasts (NHDF) were used as an in vitro model. Cells were isolated from tissue specimens obtained from healthy patients undergoing plastic surgery at the Department of Plastic and Aesthetic Surgery (University Hospital Olomouc). The use of skin tissue was in accordance with the Ethics Committee of the University Hospital and Faculty of Medicine and Dentistry, Palacky University, Olomouc and all patients signed written informed consent. Fibroblasts were used between the 2nd and 4th passage. For all experiments the fibroblasts were seeded onto 96-well plates at a density of 0.8×10^5 cells/ml (0.2 ml per well) of cultivation medium (DMEM supplemented with fetal calf serum (10%, v/v), penicillin ([…]) and streptomycin (100 U/ml)). Test substances included compounds number 1, 3, 9, 15 and 20. Compounds were dissolved in DMSO and then diluted in serum free medium (DMEM supplemented with penicillin ([…]) and streptomycin (100 U/ml)). After 24 h incubation was cultivation medium changed to serum free medium containing test compound or DMSO (negative control). The final applied concentrations range 3.9-125 μmol/l. As a control, serum free medium supplemented with appropriate concentration of DMSO (0.5%, v/v) was used. In parallel with test compound, chlorpromazine (CPZ; 0.8-50 μmol/l) was used as a known phototoxic compound. The test compound was in parallel applied on two 96-well plates with NHDF. After 60 minutes incubation with test compound medium was discarded, cells were washed two-times with PBS and PBS supplemented with glucose (1 mg/ml) was applied. A plate was then exposed to a non-cytotoxic dose of UVA radiation (5.0 J/cm^2) using a solar simulator SOL 500 (Dr. Hoenle Technology, Germany) equipped with a H1 filter transmitting wavelengths of 320-400 nm. Intensity of UVA radiation was evaluated before each irradiation by UVA-meter. A control (non-irradiated) plate was for the period of irradiation incubated in dark. After UVA exposure PBS with glucose was discarded and serum free medium was applied. After 24 hours (37° C., 5% CO2) cell damage was evaluated by neutral red (NR) incorporation into viable cells. Medium was discarded and NR solution (0.03% w/v, PBS) was applied. After 60 minutes NR solution was discarded, cells were fixed with a mixture of formaldehyde (0.5%, v/v) and CaCl2 (1%, m/v) in ratio 1:1 and then NR was dissolved in methanol (50%, v/v) with acetic acid (1%, v/v). After 5 minutes of intensive shaking absorbance was measured at 540 nm. Experiments were performed in four independent repetitions with use of cells from four donors to minimize individual sensitivity of donor cells. Phototoxic effect was evaluated as % of viability of control cells that was calculated from experimental data (absorbance) according to the following equation:
[formula] • AS . . . absorbance of sample (cells pre-incubated with test compound in serum free medium and irradiated) • AC . . . absorbance of control (cells pre-incubated with DMSO in serum free medium and irradiated) • AB . . . absorbance of background (extraction solution)

Row | SMILES | average lifespan ([1]; 10 μM in NGM) [days] | median lifespan ([1]; 10 μM in NGM) [days] | average lifespan ([1]; 100 μM in NGM) [days] | median lifespan ([1]; 100 μM in NGM) [days] | effect on lifespan of worms (in words) [1] | NHDF viability ([2]; +UVA 5.0 J/cm^2, 3.9 μmol/l) [% control] | NHDF viability ([2]; +UVA 5.0 J/cm^2, 7.8 μmol/l) [% control] | NHDF viability ([2]; +UVA 5.0 J/cm^2, 15.6 μmol/l) [% control] | NHDF viability ([2]; +UVA 5.0 J/cm^2, 31.3 μmol/l) [% control] | NHDF viability ([2]; +UVA 5.0 J/cm^2, 62.5 μmol/l) [% control] | NHDF viability ([2]; +UVA 5.0 J/cm^2, 125 μmol/l) [% control] | NHDF viability ([2]; −UVA, 3.9 μmol/l) [% control] | NHDF viability ([2]; −UVA, 7.8 μmol/l) [% control] | NHDF viability ([2]; −UVA, 15.6 μmol/l) [% control] | NHDF viability ([2]; −UVA, 31.3 μmol/l) [% control] | NHDF viability ([2]; −UVA, 62.5 μmol/l) [% control] | NHDF viability ([2]; −UVA, 125 μmol/l) [% control] | viability of NHDF cells ([2]; UVA+, 6.3 μmol/l) | viability of NHDF cells ([2]; UVA−, 25 μmol/l)
1 | c1nc(NCC2CCCO2)c2ncn(C3CCCO3)c2n1 (stereo not shown) [Compound 1, 6-(tetrahydrofuran-2-ylmethylamino)-9-(tetrahydrofuran-2-yl)purine] | 11.9 | 10.3 | 12.6 | 10.2 | significantly prolonged | 105.1 | 110.6 | 106.8 | 109.5 | 103.3 | 107.5 | 96.6 | 106.5 | 99.6 | 102.4 | 102.3 | 109.7 | – | –
2 | OCc1ccc(CNc2ncnc3c2ncn3C2CCCO2)o1 (stereo not shown) [Compound 3, 6-(5-hydroxymethylfuran-2-ylmethylamino)-9-(tetrahydrofuran-2-yl)purine] | – | – | – | – | – | 101.04 | 106.46 | 102.28 | 107.4 | 110.49 | 111.8 | 103 | 104.9 | 104.2 | 107.7 | 106.6 | 110.4 | – | –
3 | c1csc(CNc2ncnc3c2ncn3C2CCCO2)c1 (stereo not shown) [Compound 9, 6-(thiophen-2-ylmethylamino)-9-(tetrahydrofuran-2-yl)purine] | – | – | – | – | – | 97.8 | 102.3 | 100.8 | 105.9 | 102.8 | 106.3 | 100 | 103 | 100.5 | 106.7 | 107.9 | 108.4 | – | –
4 | Clc1nc(NCc2ccco2)c2ncn(C3CCCO3)c2n1 (stereo not shown) [Compound 15, 2-chloro-6-furfurylamino-9-(tetrahydrofuran-2-yl)purine] | 11.3 | 9.4 | 13.8 | 10.3 | – | 100.1 | 101.5 | 102.6 | 102.9 | 103.3 | 97.3 | 100.3 | 103.5 | 104.3 | 105.4 | 106.3 | 101.2 | – | –
5 | Clc1nc(NCC2CCCO2)c2ncn(C3CCCO3)c2n1 (stereo not shown) [Compound 20, 2-chloro-6-(tetrahydrofuran-2-ylmethylamino)-9-(tetrahydrofuran-2-yl)purine] | 12.4 | 11.2 | 11.2 | 10.2 | significantly prolonged | 100.1 | 102.9 | 100.4 | 102.7 | 105.1 | 104.8 | 103.1 | 102.9 | 100.6 | 105.6 | 102 | 104 | – | –
6 | CN(C)CCCN1c2ccccc2Sc2ccc(Cl)cc21 [chlorpromazine, reference compound] | – | – | – | – | – | – | – | – | – | – | – | – | – | – | – | – | – | below 80 % of control | below 80%
